Key:
NCI-H322M [1] = assay: Growth inhibition of human NCI-H322M cells assessed as cell growth at 10 uM after 48 hrs by sulforhodamine B assay; assay type: functional; settings: read-out: Activity
CCRF-CEM [2] = assay: Growth inhibition of human CCRF-CEM cells assessed as cell growth at 10 uM after 48 hrs by sulforhodamine B assay; assay type: functional; settings: read-out: Activity
CAKI-1 = assay: Growth inhibition of human CAKI-1 cells assessed as cell growth at 10 uM after 48 hrs by sulforhodamine B assay; assay type: functional; settings: CAKI-1, 48 h, read-out: Activity
K562 [3] = assay: Growth inhibition of human K562 cells assessed as cell growth at 10 uM after 48 hrs by sulforhodamine B assay; assay type: functional; settings: K562, 48 h, read-out: Activity
BT-549 [4] = assay: Growth inhibition of human BT549 cells assessed as cell growth at 10 uM after 48 hrs by sulforhodamine B assay; assay type: functional; settings: BT-549, 48 h, read-out: Activity
NCI-H522 = assay: Growth inhibition of human NCI-H522 cells after 48 hrs by sulforhodamine B assay; assay type: functional; settings: NCI-H522, 48 h
K562 [5] = assay: Growth inhibition of human K562 cells after 48 hrs by sulforhodamine B assay; assay type: functional; settings: K562, 48 h
UACC-62 = assay: Growth inhibition of human UACC62 cells assessed as cell growth at 10 uM after 48 hrs by sulforhodamine B assay; assay type: functional; settings: UACC-62, 48 h, read-out: Activity
BT-549 [6] = assay: Growth inhibition of human BT549 cells after 48 hrs by sulforhodamine B assay; assay type: functional; settings: BT-549, 48 h
IGROV-1 [7] = assay: Growth inhibition of human IGROV1 cells assessed as cell growth at 10 uM after 48 hrs by sulforhodamine B assay; assay type: functional; settings: IGROV-1, 48 h, read-out: Activity
DU-145 [8] = assay: Growth inhibition of human DU145 cells after 48 hrs by sulforhodamine B assay; assay type: functional; settings: DU-145, 48 h
SW-620 = assay: Growth inhibition of human SW620 cells after 48 hrs by sulforhodamine B assay; assay type: functional; settings: SW-620, 48 h
CCRF-CEM [9] = assay: Growth inhibition of human CCRF-CEM cells after 48 hrs by sulforhodamine B assay; assay type: functional
NCI-H322M [10] = assay: Growth inhibition of human NCI-H322M cells after 48 hrs by sulforhodamine B assay; assay type: functional
ACHN = assay: Growth inhibition of human ACHN cells assessed as cell growth at 10 uM after 48 hrs by sulforhodamine B assay; assay type: functional; settings: read-out: Activity
UO-31 = assay: Growth inhibition of human UO31 cells after 48 hrs by sulforhodamine B assay; assay type: functional; settings: UO-31, 48 h
MCF7 [11] = assay: Growth inhibition of human MCF7 cells after 48 hrs by sulforhodamine B assay; assay type: functional; settings: MCF7, 48 h
RXF 393 [12] = assay: Growth inhibition of human RXF393 cells assessed as cell growth at 10 uM after 48 hrs by sulforhodamine B assay; assay type: functional; settings: RXF 393, 48 h, read-out: Activity
KM12 = assay: Growth inhibition of human KM12 cells after 48 hrs by sulforhodamine B assay; assay type: functional, cell-based; settings: KM12, 48 h
RXF 393 [13] = assay: Growth inhibition of human RXF393 cells after 48 hrs by sulforhodamine B assay; assay type: functional; settings: RXF 393, 48 h
OVCAR-4 = assay: Growth inhibition of human OVCAR4 cells assessed as cell growth at 10 uM after 48 hrs by sulforhodamine B assay; assay type: functional; settings: OVCAR-4, 48 h, read-out: Activity
OVCAR-5 [14] = assay: Growth inhibition of human OVCAR5 cells after 48 hrs by sulforhodamine B assay; assay type: functional; settings: OVCAR-5, 48 h
NCI-H460 = assay: Growth inhibition of human NCI-H460 cells after 48 hrs by sulforhodamine B assay; assay type: functional; settings: NCI-H460, 48 h
OVCAR-8 = assay: Growth inhibition of human OVCAR8 cells after 48 hrs by sulforhodamine B assay; assay type: functional; settings: OVCAR-8, 48 h
A549 = assay: Growth inhibition of human A549/ATCC cells after 48 hrs by sulforhodamine B assay; assay type: functional; settings: A549, 48 h
UACC-257 = assay: Growth inhibition of human UACC257 cells assessed as cell growth at 10 uM after 48 hrs by sulforhodamine B assay; assay type: functional; settings: UACC-257, 48 h, read-out: Activity
A498 = assay: Growth inhibition of human A498 cells after 48 hrs by sulforhodamine B assay; assay type: functional, cell-based; settings: A498, 48 h
MCF7 [15] = assay: Growth inhibition of human MCF7 cells assessed as cell growth at 10 uM after 48 hrs by sulforhodamine B assay; assay type: functional; settings: MCF7, 48 h, read-out: Activity
U-251 = assay: Growth inhibition of human U251 cells assessed as cell growth at 10 uM after 48 hrs by sulforhodamine B assay; assay type: functional; settings: U-251, 48 h, read-out: Activity
DU-145 [16] = assay: Growth inhibition of human DU145 cells assessed as cell growth at 10 uM after 48 hrs by sulforhodamine B assay; assay type: functional; settings: DU-145, 48 h, read-out: Activity
SN12C = assay: Growth inhibition of human SN12C cells assessed as cell growth at 10 uM after 48 hrs by sulforhodamine B assay; assay type: functional; settings: read-out: Activity
RPMI-8226 = assay: Growth inhibition of human RPMI8226 cells after 48 hrs by sulforhodamine B assay; assay type: functional, cell-based; settings: RPMI-8226, 48 h
[17] = Growth inhibition of human Hs 578T cells assessed as cell growth at 10 uM after 48 hrs by sulforhodamine B assay; assay type: functional; settings: read-out: Activity
IGROV-1 [18] = assay: Growth inhibition of human IGROV1 cells after 48 hrs by sulforhodamine B assay; assay type: functional; settings: IGROV-1, 48 h
OVCAR-5 [19] = assay: Growth inhibition of human OVCAR5 cells assessed as cell growth at 10 uM after 48 hrs by sulforhodamine B assay; assay type: functional; settings: OVCAR-5, 48 h, read-out: Activity
[20] = read-out: LC50 (the source's name)

Compound `COc1cc(-c2nn(-c3cccc(NC(=O)Nc4cc(C(F)(F)F)cc(C(F)(F)F)c4)c3)cc2-c2ccncc2)ccc1Cl` has a growth at 10 µM (NCI-H322M [1]) of 26.1%, a growth at 10 µM (CCRF-CEM [2]) of -27.3% and a growth at 10 µM (CAKI-1) of 18.5%. For the same compound, the growth at 10 µM (K562 [3]) was -10.7%, the growth at 10 µM (BT-549 [4]) was -8.96% and the GI50 (NCI-H522) was 623 nM. For the same compound, the LC50 (concentration killing 50% of cells) (NCI-H522) was 6560 nM, the TGI (NCI-H522) was 1800 nM and the GI50 (K562 [5]) was 363 nM. For the same compound, the TGI (K562 [5]) was 3250 nM, the CC50 (K562 [5]; [20]) was > 50000 nM and the growth at 10 µM (UACC-62) was -55.9%. For the same compound, the GI50 (BT-549 [6]) was 1210 nM, the LC50 (50% lethal concentration) (BT-549 [6]) was 29600 nM and the TGI (BT-549 [6]) was 3060 nM. The growth at 10 µM (IGROV-1 [7]) was 19.9%, the GI50 (DU-145 [8]) was 1310 nM and the LC50 (DU-145 [8]) was 21100 nM. For the same compound, the TGI (DU-145 [8]) was 5040 nM, the GI50 (SW-620) was 715 nM and the TGI (SW-620) was 1860 nM. The CC50 (SW-620; [20]) was 4870 nM, the GI50 (CCRF-CEM [9]) was 498 nM and the LC50 (CCRF-CEM [9]) was > 50000 nM. For the same compound, the TGI (CCRF-CEM [9]) was 2790 nM, the GI50 (NCI-H322M [10]) was 1020 nM and the TGI (NCI-H322M [10]) was 3000 nM. For the same compound, the CC50 (NCI-H322M [10]; [20]) was 29900 nM, the growth at 10 µM (ACHN) was 10.6% and the GI50 (UO-31) was 600 nM. It also gave a TGI (UO-31) of 1280 nM, a CC50 (UO-31; [20]) of 2730 nM and a GI50 (MCF7 [11]) of 933 nM. The LC50 (MCF7 [11]) was > 50000 nM, the TGI (MCF7 [11]) was 10900 nM and the growth at 10 µM (RXF 393 [12]) was -68.1%. For the same compound, the GI50 (KM12) was 531 nM, the IC50 (KM12) was 530 nM and the TGI (KM12) was 1340 nM. The CC50 (KM12; [20]) was 3390 nM, the GI50 (RXF 393 [13]) was 869 nM and the LC50 (concentration killing 50% of cells) (RXF 393 [13]) was 4900 nM. It also gave a TGI (RXF 393 [13]) of 2060 nM, a growth at 10 µM (OVCAR-4) of 17.2% and a GI50 (OVCAR-5 [14]) of 937 nM. The LC50 (concentration killing 50% of cells) (OVCAR-5 [14]) was 12000 nM, the TGI (OVCAR-5 [14]) was 2470 nM and the GI50 (NCI-H460) was 558 nM. For the same compound, the LC50 (NCI-H460) was 16300 nM, the TGI (NCI-H460) was 1870 nM and the GI50 (OVCAR-8) was 524 nM. The TGI (OVCAR-8) was 3980 nM, the CC50 (OVCAR-8; [20]) was > 50000 nM and the GI50 (A549) was 527 nM. It also gave an LC50 (concentration killing 50% of starting cells) (A549) of 18000 nM, a TGI (A549) of 2130 nM and a growth at 10 µM (UACC-257) of -45.1%. The GI50 (A498) was 612 nM, the IC50 (A498) was 610 nM and the TGI (A498) was 1900 nM. It also gave a CC50 (A498; [20]) of 7140 nM, a growth at 10 µM (MCF7 [15]) of 1.74% and a growth at 10 µM (U-251) of -81.8%. The growth at 10 µM (DU-145 [16]) was 3.89%, the growth at 10 µM (SN12C) was -8.08% and the GI50 (RPMI-8226) was 307 nM. For the same compound, the IC50 (RPMI-8226) was 310 nM, the TGI (RPMI-8226) was > 50000 nM and the CC50 (RPMI-8226; [20]) was > 50000 nM. For the same compound, the growth at 10 µM [17] was -25.8%, the GI50 (IGROV-1 [18]) was 826 nM and the LC50 (concentration killing 50% of cells) (IGROV-1 [18]) was 23700 nM. For the same compound, the TGI (IGROV-1 [18]) was 2190 nM and the growth at 10 µM (OVCAR-5 [19]) was 16.3%.
